This note sets out measurements from PubChem BioAssay (NCI).

Assay in all cases: NCI-60 cell line screen, 48 h
The test system of experiment [1] is NCI-H522 lung.
Experiment [2] concerns SR leukemia.
The subject of experiment [3] is HCC-2998 colon.
Experiment [4] relates to SK-MEL-2 melanoma.
Experiment [5] has as its system 786-0 renal.
Experiment [6] concerns HCT-116 colon.
Experiment [7] deals with COLO 205 colon.
For experiment [8], the system named is NCI-H23 lung.
Experiment [9] relates to HCT-15 colon.
Experiment [10] deals with NCI-H460 lung.

Molecules are shown by their SMILES.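 Five compound concentrations were applied to cells in 96-well plates for 48 hours; endpoints were derived by simple linear interpolation of the resulting dose-response curve. Abbreviation: GI50, concentration required for 50% inhibition of growth. Definition used: TGI = concentration required for complete inhibition of growth.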

With `COC(=O)C(I(OS(=O)(=O)c1ccc(C)cc1)c1ccccc1)=P(c1ccccc1)(c1ccccc1)c1ccccc1`, the TGI in experiment [1] was found to be 27.7 µM; in experiment [2], 49.7 µM; in [3], 34.8 µM; in [4] it was 36.4 µM; in experiment [5] it was 28.9 µM; in experiment [6], 30.2 µM. The TGI was 13.1 µM in experiment [7], 34.1 µM in [8], greater than 100 µM in experiment [9] and greater than 100 µM in [10].
Take `COC[C@H](Cc1ccccc1)N=Cc1ccccc1`: the TGI in experiment [1], in experiment [2], in [3], in experiment [4], in experiment [5] and in [6] was greater than 100 µM throughout. For the same compound, the TGI in [7], in experiment [8], in [9] and in experiment [10] was greater than 100 µM each time.
For the compound `Clc1ccc(CCN2CCN(CCCc3ccccc3)CC2)cc1Cl`, the TGI in [1] came to 36.7 µM; in experiment [2] it was 78.8 µM; in [3] it was 31.3 µM; in experiment [4] it was 36.4 µM; in [5], 30.2 µM; in experiment [6] it was 28.4 µM. For the same compound, the TGI in [7] worked out at 31.6 µM; in experiment [8], 31.6 µM; in [9], 27.8 µM; in [10], 33.5 µM.
For the compound `O=c1[nH]/c(=C/c2ccc(OCc3ccccc3)cn2)c(=O)[nH]/c1=C/c1cccnc1`, the TGI in [1] was 0.588 µM; in experiment [2], greater than 100 µM; in experiment [3], 3.16 µM; in experiment [4], greater than 44.1 µM; in experiment [5], greater than 100 µM; in experiment [6], greater than 100 µM. For the same compound, the TGI in experiment [7] is 6.13 µM; in [10], 7.82 µM.
Take `CC(C)(C)OC(=O)N(CCCN)CCCCN(CCCN)C(=O)OC(C)(C)C`: the TGI in experiment [1], in experiment [2], in [3], in experiment [4], in [5] and in experiment [6] was greater than 100 µM each time. For the same compound, the TGI in [7], in experiment [8], in experiment [9] and in [10] was greater than 100 µM throughout.
For `COc1cc(C2c3cc4c(c(O)c3C(=O)C3CCC(=O)N32)OCO4)cc(OC)c1OC` (centres undefined), the TGI in [1] is 38.9 µM; in [2] it was greater than 100 µM; in experiment [3], greater than 100 µM; in experiment [4], greater than 100 µM; in experiment [5], greater than 100 µM; in [6] it was greater than 100 µM. The TGI in experiment [7], in experiment [8], in experiment [9] and in experiment [10] was greater than 100 µM throughout.
For `CN1C(=N\S(=O)(=O)c2ccc(Cl)cc2)/C(=N/N=P(c2ccccc2)(c2ccccc2)c2ccccc2)c2ccccc21`, the TGI in experiment [1], in [2], in experiment [3], in experiment [4], in [6] and in experiment [7] was greater than 100 µM each time. Besides, the TGI in [8], in experiment [9] and in experiment [10] was greater than 100 µM throughout.
As to `CCC(c1ccc(N(C)C)cc1)C1NC(=S)NC1=O` (centres undefined), the TGI in experiment [1], in experiment [2], in experiment [3], in experiment [5], in experiment [6] and in [7] was greater than 100 µM each time. Besides, the TGI in experiment [8], in experiment [9] and in experiment [10] was greater than 100 µM in each case.
On to `O=C(Cl)c1cc([N+](=O)[O-])cc([N+](=O)[O-])c1`, for which the TGI in [1], in [2], in experiment [3], in [4], in experiment [5] and in experiment [6] was greater than 100 µM throughout. The TGI in experiment [7], in experiment [8], in [9] and in experiment [10] was greater than 100 µM throughout.
Take `COc1cc(OC)cc(N(C)Cc2cnc3nc(N)nc(N)c3c2C)c1`: the TGI in experiment [1] is 43.6 µM; in experiment [2], greater than 100 µM; in experiment [3] it was greater than 100 µM; in experiment [4] it was greater than 100 µM; in [5], greater than 100 µM; in [6] it was greater than 100 µM. For the same compound, the TGI in experiment [7], in experiment [8], in experiment [9] and in experiment [10] was greater than 100 µM throughout.
With `CC(C)(C)OC(=O)NCCNC(=O)OCc1ccccc1`, the TGI in experiment [1], in experiment [2], in experiment [3], in [4], in experiment [5] and in experiment [7] was greater than 100 µM each time. The TGI in [8], in experiment [9] and in [10] was greater than 100 µM each time.
Take `Cc1ccc(CCNC(=S)SCC(NC(=O)CCC(N)C(=O)O)C(=O)NCC(=O)O)cc1` (centres undefined): the TGI stood at 1.45 µM in [1]; 5.91 µM in experiment [2]; 3.54 µM in experiment [3]; 1.45 µM in experiment [4]; 1.6 µM in [5]; 6.26 µM in [6]. The TGI came out at 6.63 µM in experiment [7], 9.99 µM in experiment [8], 3.72 µM in experiment [9] and 8.09 µM in experiment [10].
As for `COc1ccc(N=Nc2ccc3oc(=O)c(C(=O)Nc4ccc(OC)cc4)cc3c2)cc1`, the TGI in experiment [1] was determined as 75.6 µM; in [2], 87.5 µM; in experiment [3], 45.3 µM; in experiment [4], 39.5 µM; in experiment [5], 44.5 µM; in experiment [6] it was 23.8 µM. The TGI is 43.7 µM in experiment [7], 43.8 µM in experiment [8], 45.2 µM in experiment [9] and 79.4 µM in [10].
Consider `CCCCCCc1cc2cc(C(=O)Nc3cccc(C(F)(F)F)c3)c(=N)oc2cc1O`, for which the TGI in [1] came out at 2.67 µM; in experiment [2], 4.37 µM; in experiment [3], 15.8 µM; in [4], 5.68 µM; in experiment [5], 6.27 µM; in experiment [6], 4.57 µM. The TGI in experiment [7] was 21 µM; in [8], 1.76 µM; in [9], 4.36 µM; in [10], greater than 32.1 µM.
As to `CCOC(=O)C1C(=O)C=C(c2cc(C)ccc2O)CC1c1cccc(Br)c1` (centres undefined), the TGI in [1] stood at 35.1 µM; in [2], 25.4 µM; in experiment [3] it was 34.6 µM; in experiment [4] it was 39.4 µM; in experiment [5], 39.8 µM; in experiment [6] it was 40.7 µM. Besides, the TGI is 31.1 µM in experiment [7], 46.5 µM in experiment [8], 10.4 µM in [9] and 50.6 µM in experiment [10].
With `O=C1NC(N2CCCC(CO)C2)=N/C1=C\c1ccc(O)cc1` (centres undefined), the TGI in experiment [1], in experiment [2], in experiment [3], in experiment [4], in experiment [5] and in experiment [6] was greater than 100 µM throughout. Besides, the TGI in experiment [7], in [8] and in experiment [9] was greater than 100 µM in each case.
In the case of `O=c1[nH]c2cccccc-2c1-c1nc2ccccc2[nH]1`, the TGI in experiment [1] is 42.3 µM; in [2], greater than 100 µM; in experiment [3], greater than 100 µM; in experiment [4] it was 77.1 µM; in experiment [5] it was 41 µM; in experiment [6], greater than 100 µM. Also, the TGI in experiment [7], in experiment [8] and in experiment [9] was greater than 100 µM in each case.
With `CCC1(CC)C(=O)N(C(=O)c2ccc(Cl)cc2)N(C(=O)c2ccccc2Cl)C1=O`, the TGI in [1] was 48.1 µM; in experiment [2] it was greater than 100 µM; in experiment [3], greater than 100 µM; in [4] it was greater than 100 µM; in experiment [5] it was greater than 100 µM; in experiment [6] it was greater than 100 µM. The TGI in [7] was greater than 100 µM; in experiment [8], greater than 100 µM; in [9], greater than 100 µM; in [10] it was 41.8 µM.
Consider `CC1(C)CC(=O)C2=C(C1)OC1=C(CC(C)(C)CC1=O)C2c1ccccc1Cl` (centres undefined), for which the TGI in experiment [1], in experiment [2], in [3], in experiment [4], in [5] and in experiment [6] was greater than 100 µM each time. Moreover, the TGI in experiment [7], in experiment [8], in experiment [9] and in experiment [10] was greater than 100 µM each time.
For `COC(=O)c1ccc2[nH]c3c(c2c1)CC(=O)Nc1ccccc1-3`, the TGI in experiment [1] was greater than 100 µM; in [2] it was 25 µM; in [3] it was greater than 100 µM; in experiment [4], greater than 100 µM; in [5] it was greater than 100 µM; in [6], greater than 100 µM. Further, the TGI in experiment [7], in [9] and in experiment [10] was greater than 100 µM in each case.
Regarding `O=C(C(Cl)=C(Nc1ccccc1)Nc1ccccc1)C(Cl)Cl`, the TGI worked out at 37.4 µM in experiment [1]; 49.4 µM in experiment [2]; 37.3 µM in [3]; 69.1 µM in [5]; 60.2 µM in experiment [6]; 97.7 µM in [7]. Besides, the figures for the TGI in experiment [8], in experiment [9] and in [10] were 93.2 µM, 34.1 µM and greater than 100 µM, respectively.
`Nc1nc(NC(=O)C2=NS(=O)(=O)c3cc(S(N)(=O)=O)c(Cl)cc3N2)n[nH]1`: the TGI in experiment [1], in experiment [2], in experiment [3], in experiment [5], in experiment [6] and in experiment [7] was greater than 100 µM each time. The TGI in [8], in experiment [9] and in [10] was greater than 100 µM each time.
`O=C(CCc1nnc2s/c(=C\c3ccc(Cl)cc3Cl)c(=O)n12)Nc1cc(Cl)c(Cl)cc1Cl`: the TGI in [1], in [2], in [3], in experiment [4], in experiment [6] and in experiment [7] was greater than 100 µM in each case. Moreover, the TGI in experiment [8] and in experiment [9] was greater than 100 µM in each case. In addition, the GI50 in [2], in [4], in [6], in [7], in experiment [8] and in [9] was greater than 100 µM in each case.
`N#C/C(=C/NC(=S)Nc1ccc(S(N)(=O)=O)cc1)C(N)=O`: the TGI in experiment [1], in experiment [2], in [3], in experiment [5], in experiment [6] and in experiment [7] was greater than 100 µM each time. The TGI in experiment [8], in experiment [9] and in [10] was greater than 100 µM throughout.
With `C[Si](C)(C)C1=C2C(=O)c3ccccc3C(=O)C2=C([Si](C)(C)C)[C@@H]2CCCC[C@H]12`, the TGI in experiment [1], in experiment [2], in [3], in experiment [4], in experiment [6] and in experiment [7] was greater than 100 µM each time. The TGI in experiment [8], in experiment [9] and in [10] was greater than 100 µM each time.
For the compound `C[N+]12C=CC=C1C(N1CCCC1)c1sc(-c3ccc(Cl)cc3)cc12` (centres undefined), the TGI in experiment [1] amounted to 27 µM; in [2], 50.1 µM; in experiment [3], 29.2 µM; in experiment [4], 21.1 µM; in experiment [5], 28.8 µM; in experiment [6] it was 29.6 µM. Moreover, the TGI in experiment [7] stood at 31.6 µM; in [9], 90.5 µM; in experiment [10], 32.6 µM.
With `CN(C)CCCn1c2c(c3ccncc3c1=O)C(=O)c1ccccc1-2`, the GI50 is 1.61 µM in [1]; 0.313 µM in [2]; 1.38 µM in experiment [3]; 2.18 µM in experiment [4]; 0.382 µM in experiment [6]; 0.806 µM in experiment [7]. The GI50 in experiment [8] was 1.08 µM; in experiment [9], 0.513 µM; in experiment [10], 0.438 µM. Moreover, the TGI in experiment [1] was determined as 11.9 µM; in experiment [2], 11.9 µM; in [3] it was 5.31 µM; in experiment [4], 6.96 µM; in [6] it was 21.8 µM; in [7] it was 14.3 µM. Moreover, the TGI in experiment [8] stood at 9.63 µM; in experiment [9] it was 11.9 µM; in [10], 3.63 µM.
